This experiment has as its system LMP1 expression in Kem I cells. Put plainly: microbe, parasite or virus in culture. The experiment is classed as cell-based, EBV. The following applies: for fold induction at 1 µM / fold induction at 2.5 µM: human gammaherpesvirus 4, 48 h.
Where [1] appears, read: read-out: Average LMP1 Fold Increase, Kem I cells, 1 uM, 48 hours, average of replicates 1 and 2.
The mark [2] stands for this setting: read-out: Replicate 1-LMP1 Fold Increase, Kem I cells, 1 uM, 48 hours, fold change in LMP1 transcript vs vehicle.
Where [3] appears, read: read-out: Replicate 2-LMP1 Fold Increase, Kem I cells, 1 uM, 48 hours, fold change in LMP1 transcript vs vehicle.
[4] abbreviates: Kem I cells, 2.5 uM, 48 hours, average of replicates 1 and 2.
Setting [5] is: Kem I cells, 2.5 uM, 48 hours, fold change in LMP1 transcript vs vehicle.
The mark [6] stands for this setting: read-out: Average LMP1 Fold Increase, Kem I cells, 2.5 uM, 48 hours, average of replicates 1 and 2.
Setting [7] is: read-out: Replicate 1-LMP1 Fold Increase, Kem I cells, 2.5 uM, 48 hours, fold change in LMP1 transcript vs vehicle.
The mark [8] stands for this setting: read-out: Replicate 2-LMP1 Fold Increase, Kem I cells, 2.5 uM, 48 hours, fold change in LMP1 transcript vs vehicle.

Structures can show the parent of a compound that is named as a salt. Where two headings read alike, the source gives them in different places.

For `COC1=CC(c2cc3ccccc3[nH]2)=N/C1=C\c1[nH]c(C)cc1C` [Obatoclax], the fold induction at 1 µM reads like this: under setting [1], 13.7; under setting [2], 24.3; under setting [3], 3.03.
With `CC(C)(F)C[C@H](N[C@@H](c1ccc(-c2ccc(S(C)(=O)=O)cc2)cc1)C(F)(F)F)C(=O)NC1(C#N)CC1` [Odanacatib (MK-0822)], under setting [4], the “Average LMP1 Fold Increase” value was 0.56. For the same compound, under setting [5], the “Replicate 1-LMP1 Fold Increase” value was determined as 0.58 and the “Replicate 2-LMP1 Fold Increase” value is listed as 0.54.
Turning to `CC[C@@H]1/C=C/C=C/C[C@H](C)[C@H](O)[C@](C)(O)C(=O)[C@H](C)[C@@H](O)[C@H](C)C(=O)[C@H](C)[C@@H](O)[C@H](C)/C=C/C(=O)O[C@H]2[C@@H](C)[C@@H](CC1)O[C@@]1(CC[C@@H](C)[C@@H](C[C@H](C)O)O1)[C@@H]2C` [Oligomycin A], the “Average LMP1 Fold Increase” value under setting [4] is 1.40. Also, under setting [5], the “Replicate 1-LMP1 Fold Increase” value was determined as 1.03 and the “Replicate 2-LMP1 Fold Increase” value is on record as 1.76.
With `CCc1c(C(=O)NCCc2ccc(N3CCCCC3)cc2)[nH]c2ccc(Cl)cc12` [Org 27569], the “Average LMP1 Fold Increase” value under setting [4] is 0.51. Besides, under setting [5], the “Replicate 1-LMP1 Fold Increase” value is listed as 0.49 and the “Replicate 2-LMP1 Fold Increase” value was found to be 0.53.
`C[C@@H]1O[C@@H](O[C@H]2C[C@@H](O)[C@]3(CO)[C@H]4[C@H](O)C[C@]5(C)[C@@H](C6=CC(=O)OC6)CC[C@]5(O)[C@@H]4CC[C@]3(O)C2)[C@H](O)[C@H](O)[C@H]1O` [Ouabain]: the fold induction at 2.5 µM is, setting by setting: under setting [6], 92.1; under setting [7], 22.8; under setting [8], 161.
Consider `NC(=O)N1c2ccccc2CC(=O)c2ccccc21` [Oxcarbazepine], for which the fold induction at 2.5 µM under setting [6] was 0.46, the fold induction at 2.5 µM under setting [7] amounted to 0.54 and the fold induction at 2.5 µM under setting [8] is 0.38.
Take `Cc1cc(C(C)(C)C)c(O)c(C)c1CC1=NCCN1` [Oxymetazoline HCl]: the fold induction at 2.5 µM reads like this: under setting [6], 0.66; under setting [7], 0.6; under setting [8], 0.72.
For the compound `O=C(O)/C=C/c1ccc(Cn2ccnc2)cc1` [Ozagrel HCl], under setting [4], the “Average LMP1 Fold Increase” value is reported as 0.79. Besides, under setting [5], the “Replicate 1-LMP1 Fold Increase” value turned out to be 0.85 and the “Replicate 2-LMP1 Fold Increase” value is on record as 0.72.
Take `O=C(O)/C=C/c1ccc(Cn2ccnc2)cc1` [Ozagrel]: the “Replicate 2-LMP1 Fold Increase” value under setting [5] stood at 1.55. Moreover, the fold induction at 2.5 µM came out at 1.41 under setting [6] and 1.27 under setting [7].
With `CC(=O)c1cc([N+](=O)[O-])c(Sc2ccc(F)cc2F)s1` [P22077], the “Average LMP1 Fold Increase” value under setting [4] stood at 0.25. Further, under setting [5], the “Replicate 1-LMP1 Fold Increase” value is listed as 0.20 and the “Replicate 2-LMP1 Fold Increase” value is reported as 0.29.
In the same order, the values of `C=CCc1cccc(/C=N/NC(=O)CN2CCN(Cc3ccccc3)CC2)c1O` [PAC-1] are 0.78, 0.78 and 0.78.
`O=C(NOCC1CC1)c1ccc(F)c(F)c1Nc1ccc(I)cc1Cl` [PD184352 (CI-1040)]: under setting [4], the “Average LMP1 Fold Increase” value was 0.66. Also, under setting [5], the “Replicate 1-LMP1 Fold Increase” value is 0.65 and the “Replicate 2-LMP1 Fold Increase” value came out at 0.66.
For `O=C(NOC[C@H](O)CO)c1ccc(F)c(F)c1Nc1ccc(I)cc1F` [PD0325901], the fold induction at 2.5 µM runs as follows: under setting [6], 0.47; under setting [7], 0.68; under setting [8], 0.27.
With `O=C(Nc1cccnc1)N1CCC(Cc2cccc(Oc3ccc(C(F)(F)F)cn3)c2)CC1` [PF-3845], under setting [4], the “Average LMP1 Fold Increase” value is listed as 0.32. Also, under setting [5], the “Replicate 1-LMP1 Fold Increase” value was found to be 0.16 and the “Replicate 2-LMP1 Fold Increase” value came to 0.48.
On to `CN(c1ncccc1CNc1nc(Nc2ccc3c(c2)CC(=O)N3)ncc1C(F)(F)F)S(C)(=O)=O` [PF-562271], for which the “Average LMP1 Fold Increase” value under setting [4] was determined as 0.50. Under setting [5], the “Replicate 1-LMP1 Fold Increase” value turned out to be 0.81 and the “Replicate 2-LMP1 Fold Increase” value is reported as 0.19.
For the compound `CS(=O)(=O)c1cccc(CNc2nc(Nc3ccc4c(c3)CCC(=O)N4)ncc2C(F)(F)F)c1` [PF-573228], the “Average LMP1 Fold Increase” value under setting [4] is listed as 0.66. Under setting [5], the “Replicate 1-LMP1 Fold Increase” value worked out at 0.87 and the “Replicate 2-LMP1 Fold Increase” value is 0.45.
As to `OCCn1cc(-c2cnc3nnn(Cc4ccc5ncccc5c4)c3n2)cn1` [PF-04217903], the “Average LMP1 Fold Increase” value under setting [4] came to 1.03. Under setting [5], the “Replicate 1-LMP1 Fold Increase” value was found to be 0.96 and the “Replicate 2-LMP1 Fold Increase” value was 1.11.
Take `CCc1cncnc1N1CCN(Cc2nc3ccc(C(F)(F)F)cc3[nH]2)CC1` [PF-4708671]: the “Average LMP1 Fold Increase” value under setting [4] came out at 0.74. Besides, under setting [5], the “Replicate 1-LMP1 Fold Increase” value is listed as 1.30 and the “Replicate 2-LMP1 Fold Increase” value is 0.18.
For `Cc1cnc(-c2cc(N3CCN(C(=O)CCS(C)(=O)=O)CC3)ncc2Cl)c(C)c1` [PF-5274857], the “Average LMP1 Fold Increase” value under setting [4] is given as 0.87. Besides, under setting [5], the “Replicate 1-LMP1 Fold Increase” value is reported as 1.12 and the “Replicate 2-LMP1 Fold Increase” value came out at 0.62.
As to `COc1ccccc1S(=O)(=O)Nc1ccc2c(c1)CN(C)C(=O)N2` [PFI-1 (PF-6405761)], the “Average LMP1 Fold Increase” value under setting [4] is given as 0.78. For the same compound, under setting [5], the “Replicate 1-LMP1 Fold Increase” value is recorded as 0.42 and the “Replicate 2-LMP1 Fold Increase” value is 1.15.
For the compound `Cc1[nH]c(/C=C2\C(=O)Nc3ccc(S(=O)(=O)Cc4c(Cl)cccc4Cl)cc32)c(C)c1C(=O)N1CCC[C@@H]1CN1CCCC1` [PHA-665752], the fold induction at 2.5 µM runs as follows: under setting [6], 0.69; under setting [7], 0.55; under setting [8], 0.84.
`CC(C)CC(=O)Nc1[nH]nc2c1CN(C(=O)C1CCN(C)CC1)C2(C)C` [PHA-793887]: the fold induction at 2.5 µM is, setting by setting: under setting [6], 2.82; under setting [7], 0.58; under setting [8], 5.05.
Turning to `COc1cc(OC)c(NC(=O)Nc2cc(C)on2)cc1Cl` [PNU-120596], the “Average LMP1 Fold Increase” value under setting [4] is recorded as 0.30. Under setting [5], the “Replicate 1-LMP1 Fold Increase” value worked out at 0.17 and the “Replicate 2-LMP1 Fold Increase” value is reported as 0.44.
The corresponding values for `CC(C)(C)n1nc(-c2ccc(Cl)cc2)c2c(N)ncnc21` [PP2] are 1.01, 0.73 and 1.28.
Consider `N#CSc1cc(SC#N)c(N)nc1N` [PR-619], for which the “Average LMP1 Fold Increase” value under setting [4] was 0.31. For the same compound, under setting [5], the “Replicate 1-LMP1 Fold Increase” value turned out to be 0.23 and the “Replicate 2-LMP1 Fold Increase” value was determined as 0.39.
On to `Cl.NC(=O)c1cnc(N[C@@H]2CCCC[C@@H]2N)nc1Nc1cccc(-n2nccn2)c1` [PRT062607(P505-15, BIIB057) HCl], for which the “Average LMP1 Fold Increase” value under setting [4] turned out to be 0.54. Further, under setting [5], the “Replicate 1-LMP1 Fold Increase” value came out at 0.25 and the “Replicate 2-LMP1 Fold Increase” value came out at 0.83.
Turning to `COc1cc(Br)c(Nc2nc(-c3c(C)nc4ncccn34)cs2)c(Br)c1` [PTC-209], the “Average LMP1 Fold Increase” value was 0.90, the “Replicate 1-LMP1 Fold Increase” value is on record as 0.34 and the “Replicate 2-LMP1 Fold Increase” value was found to be 1.46.
On to `CC(C)NCCCn1c(Sc2cc3c(cc2I)OCO3)nc2c(N)ncnc21` [PU-H71], for which the fold induction at 1 µM is, setting by setting: under setting [1], 9.03; under setting [2], 15.3; under setting [3], 2.79.
As for `CCOC(=O)c1ccc(N2NC(=O)/C(=C/c3ccc([N+](=O)[O-])o3)C2=O)cc1` [PYR-41], the “Average LMP1 Fold Increase” value under setting [4] came out at 0.49. Moreover, under setting [5], the “Replicate 1-LMP1 Fold Increase” value was determined as 0.50 and the “Replicate 2-LMP1 Fold Increase” value amounted to 0.49.
Regarding `C1=N/C2=N/c3ccc(OCCN4CCCC4)c(c3)COC/C=C/COCc3cccc(c3)C(=C1)N2` [Pacritinib (SB1518)], the “Average LMP1 Fold Increase” value under setting [4] was determined as 0.37. Under setting [5], the “Replicate 1-LMP1 Fold Increase” value was determined as 0.24 and the “Replicate 2-LMP1 Fold Increase” value was 0.49.
The corresponding values for `CC(=O)c1c(C)c2cnc(Nc3ccc(N4CCNCC4)cn3)nc2n(C2CCCC2)c1=O.Cl` [Palbociclib (PD-0332991) HCl] are 1.34, 0.77 and 1.91.
For the compound `CC(=O)O[C@H]1C[C@@H]2CC[C@@H]3[C@H](CC[C@@]4(C)[C@H]3C[C@H]([N+]3(C)CCCCC3)[C@@H]4OC(C)=O)[C@@]2(C)C[C@@H]1[N+]1(C)CCCCC1.[Br-].[Br-]` [Pancuronium dibromide], the “Average LMP1 Fold Increase” value under setting [4] is on record as 0.28. Further, under setting [5], the “Replicate 1-LMP1 Fold Increase” value worked out at 0.25 and the “Replicate 2-LMP1 Fold Increase” value amounted to 0.31.
Consider `Cc1[nH]c2ccccc2c1CCNCc1ccc(/C=C/C(=O)NO)cc1` [Panobinostat (LBH589)], for which the “Average LMP1 Fold Increase” value under setting [4] came out at 383.26. Under setting [5], the “Replicate 1-LMP1 Fold Increase” value is listed as 451.65 and the “Replicate 2-LMP1 Fold Increase” value is given as 314.88.
`Oc1cc(O)cc(/C=C/c2ccc(O)c(O)c2)c1` [Piceatannol]: the fold induction at 2.5 µM under setting [6] was determined as 0.75, the fold induction at 2.5 µM under setting [7] was 0.83 and the fold induction at 2.5 µM under setting [8] is 0.66.
As for `COc1ccc(-c2nc3ccc(C4=NNC(=O)CC4C)cc3[nH]2)cc1` (stereo not drawn) [Pimobendan], the fold induction at 2.5 µM was 0.87 under setting [6], 1.11 under setting [7] and 0.64 under setting [8].
As to `O=C(NNc1ccccc1)c1ccncc1` [PluriSln #1 (NSC 14613)], under setting [4], the “Average LMP1 Fold Increase” value amounted to 1.32. Under setting [5], the “Replicate 1-LMP1 Fold Increase” value came out at 1.70 and the “Replicate 2-LMP1 Fold Increase” value came to 0.94.
For the compound `Nc1cccc2c1C(=O)N(C1CCC(=O)NC1=O)C2=O` (stereo not drawn) [Pomalidomide], the fold induction at 2.5 µM turned out to be 5.8 under setting [6], 3.72 under setting [7] and 7.87 under setting [8].

The record behind these values is US20230053688A1, “METHODS TO ALTER LATENCY IN EBV+ MALIGNANCIES” (Cornell University, priority 2020, published 2023).
